Experiments:
[1] = Biological Activities of natural precursors (test not specified)
IGROV [2] = settings: Ovary
DNA = test: Secondary Screening, DNA Binding GEL; settings: Secondary Evaluation
DNA synthesis = test: Secondary Screening, Macromolecules Synthesis DNA; assay type: cell-based; settings: Secondary Evaluation
HT29 [3] = test: cells; settings: Homo sapiens; for GI50: HT-29, read-out: GI50 HT29; for CC50: HT-29, read-out: LC50 HT29
HT29 [4] = settings: Colon
IGROV-ET [5] = settings: Ovary
Bacillus subtilis = test: Antimicrobial activity on solid medium, disk; assay type: cell-based; settings: Bacillus subtilis, 10 μg/disk (6 mm diameter)
Method: Antimicrobial activity: On solid medium Bacillus subtilis. 10 μg/disk (6 mm diameter): 10 mm inhibition zone Spectroscopic Data: […]

PROTEIN synthesis = test: Secondary Screening, Macromolecules Synthesis PROTEIN; assay type: cell-based; settings: Secondary Evaluation
Apoptosis (NUCLEOSOMES) = test: Secondary Screening, Apoptosis NUCLEOSOMES; assay type: cell-based; settings: Secondary Evaluation
SK-BR3 [6] = settings: Breast
SK-MEL-28 [7] = test: cells; settings: Homo sapiens; for GI50: SK-MEL-28, read-out: GI50 SK-MEL-28; for CC50: SK-MEL-28, read-out: LC50 SK-MEL-28
A549 [8] = settings: NSCL
A549 [9] = test: cells; settings: Homo sapiens; for GI50: A549, read-out: GI50 A549; for CC50: A549, read-out: LC50 A549
PANC1 [10] = test: cells; settings: Homo sapiens; for GI50: PANC-1, read-out: GI50 PANC1; for CC50: PANC-1, read-out: LC50 PANC1
SK-MEL-28 [11] = settings: Melanoma
LN-caP [12] = test: cells; settings: Homo sapiens, LNCaP; for GI50: read-out: GI50 LN-caP; for CC50: read-out: LC50 LN-caP
IGROV [13] = test: cells; settings: for GI50: read-out: GI50 IGROV; for CC50: read-out: LC50 IGROV
IGROV-ET [14] = test: cells; settings: for GI50: read-out: GI50 IGROV-ET; for CC50: read-out: LC50 IGROV-ET
K-562 [15] = test: cells; settings: Homo sapiens; for GI50: K562, read-out: GI50 K-562; for CC50: K562, read-out: LC50 K-562
LOVO [16] = settings: Colon
LOVO-DOX [17] = test: cells; settings: for GI50: read-out: GI50 LOVO-DOX; for CC50: read-out: LC50 LOVO-DOX
DU-145 [18] = test: cells; settings: Homo sapiens; for GI50: DU-145, read-out: GI50 DU-145; for CC50: DU-145, read-out: LC50 DU-145
DU-145 [19] = settings: Prostate
HELA [20] = test: cells; settings: Homo sapiens; for GI50: read-out: GI50 HELA; for CC50: read-out: LC50 HELA
LN-caP [21] = settings: Prostate
[22] = Antibacterial and antitumoral activities, general statements; settings: compared with safracin A / safracin B
K-562 [23] = settings: Leukemia
HELA [24] = settings: Cervix
PANC1 [25] = settings: Pancreas
HELA-APL [26] = settings: Cervix
RNA synthesis = test: Secondary Screening, Macromolecules Synthesis RNA; assay type: cell-based; settings: Secondary Evaluation
HELA-APL [27] = test: cells; settings: for GI50: read-out: GI50 HELA-APL; for CC50: read-out: LC50 HELA-APL
SK-BR3 [28] = test: cells; settings: Homo sapiens; for GI50: SK-BR-3, read-out: GI50 SK-BR3; for CC50: SK-BR-3, read-out: LC50 SK-BR3
LOVO-DOX [29] = settings: Colon
LOVO [30] = test: cells; settings: Homo sapiens; for GI50: read-out: GI50 LOVO; for CC50: read-out: LC50 LOVO
[31] = different tumor cell lines; background; cited from earlier work

COc1ccc(C[C@H](N)C(=O)O)cc1C [Safracin P-14, 3-methyl-O-methyltyrosine]
Biological Activities [1]: NO ACTIVE

CCOC1=C(C)C(=O)C2=C(C1=O)C(CNC(=O)C(C)N)N1C(O)C3Cc4cc(C)c(OCC)c(O)c4C(C1C2)N3C (centres unmarked) [Safracin B (OEt)]
TGI IGROV (IGROV [2]): 0.0997 µM | IC50 (DNA): 17.6 µM | IC50 (DNA synthesis): 1.76 µM | GI50 (HT29 [3]): 0.244 µM | CC50 (HT29 [3]): > 17.6 µM | TGI HT29 (HT29 [4]): 1.39 µM | TGI IGROV-ET (IGROV-ET [5]): 1.19 µM | zone of inhibition at 10 µg/disc (Bacillus subtilis): 17.5 mm | IC50 (PROTEIN synthesis): > 17.6 µM | IC50 (Apoptosis (NUCLEOSOMES)): 0.0528 µM | TGI SK-BR3 (SK-BR3 [6]): 0.116 µM | GI50 (SK-MEL-28 [7]): 0.169 µM | CC50 (SK-MEL-28 [7]): 1.13 µM | TGI A549 (A549 [8]): 1.16 µM | GI50 (A549 [9]): 0.501 µM | CC50 (A549 [9]): 5.66 µM | GI50 (PANC1 [10]): 0.649 µM | CC50 (PANC1 [10]): 13.5 µM | TGI SK-MEL-28 (SK-MEL-28 [11]): 0.44 µM | GI50 (LN-caP [12]): 0.0484 µM | CC50 (LN-caP [12]): 0.828 µM | GI50 (IGROV [13]): 0.0406 µM | CC50 (IGROV [13]): 4.27 µM | GI50 (IGROV-ET [14]): 0.682 µM | CC50 (IGROV-ET [14]): 6.37 µM | GI50 (K-562 [15]): 0.0397 µM | CC50 (K-562 [15]): 3.69 µM | TGI LOVO (LOVO [16]): 1.09 µM | GI50 (LOVO-DOX [17]): 2.09 µM | CC50 (LOVO-DOX [17]): > 17.6 µM | GI50 (DU-145 [18]): 0.401 µM | CC50 (DU-145 [18]): 16 µM | TGI DU-145 (DU-145 [19]): 1.01 µM | GI50 (HELA [20]): 0.0892 µM | CC50 (HELA [20]): 1.35 µM | TGI LN-caP (LN-caP [21]): >17.6 µM | antibacterial and antitumoral activities (in words) [22]: as potent as the activities of safracin A and safracin B, respectively | TGI K-562 (K-562 [23]): 0.108 µM | TGI HELA (HELA [24]): 0.315 µM | TGI PANC1 (PANC1 [25]): 2.06 µM | TGI HELA-APL (HELA-APL [26]): 0.274 µM | IC50 (RNA synthesis): 0.176 µM | GI50 (HELA-APL [27]): 0.077 µM | CC50 (HELA-APL [27]): 0.976 µM | GI50 (SK-BR3 [28]): 0.0482 µM | CC50 (SK-BR3 [28]): 1.02 µM | TGI LOVO-DOX (LOVO-DOX [29]): 9.88 µM | GI50 (LOVO [30]): 0.443 µM | CC50 (LOVO [30]): > 17.6 µM

COC1=C(C)C(=O)C2=C(C1=O)[C@H](CNC(=O)[C@H](C)N)N1C[C@@H]3Cc4cc(C)c(OC)c(O)c4[C@H]([C@@H]1C2)N3C [Safracin A, reference compound]
antibacterial and antitumoral activities (in words) [22]: less antibiotic and antitumoral activity | antitumor and antibacterial activity (in words) [31]: possess antitumor activity in addition to antibacterial activity

COC1=C(C)C(=O)C2=C(C1=O)[C@H](CNC(=O)[C@H](C)N)N1[C@@H](O)[C@H]3Cc4cc(C)c(OC)c(O)c4[C@@H]([C@@H]1C2)N3C [Safracin B]
antitumor and antibacterial activity (in words) [31]: possess antitumor activity in addition to antibacterial activity

COC1=C(C)C(=O)C2=C(C1=O)C(CNC(=O)C(C)N)N1C(O)C3Cc4cc(C)c(OC)c(O)c4C(N3)C1C2 (centres unmarked) [Safracin D]
TGI IGROV (IGROV [2]): 6.02 µM | IC50 (DNA): 6.65 µM | IC50 (DNA synthesis): 15.2 µM | GI50 (HT29 [3]): 4.33 µM | CC50 (HT29 [3]): > 19 µM | TGI HT29 (HT29 [4]): 17.9 µM | TGI IGROV-ET (IGROV-ET [5]): 3.34 µM | zone of inhibition at 10 µg/disc (Bacillus subtilis): 15 mm | IC50 (PROTEIN synthesis): 19 µM | IC50 (Apoptosis (NUCLEOSOMES)): 2.85 µM | TGI SK-BR3 (SK-BR3 [6]): 7.82 µM | GI50 (SK-MEL-28 [7]): 3.51 µM | CC50 (SK-MEL-28 [7]): 11 µM | TGI A549 (A549 [8]): 10.7 µM | GI50 (A549 [9]): 6.04 µM | CC50 (A549 [9]): 18.8 µM | GI50 (PANC1 [10]): 4.77 µM | CC50 (PANC1 [10]): > 19 µM | TGI SK-MEL-28 (SK-MEL-28 [11]): 6.21 µM | GI50 (LN-caP [12]): 1.54 µM | CC50 (LN-caP [12]): 9.78 µM | GI50 (IGROV [13]): 2.68 µM | CC50 (IGROV [13]): 13.5 µM | GI50 (IGROV-ET [14]): 1.33 µM | CC50 (IGROV-ET [14]): 9.15 µM | GI50 (K-562 [15]): 0.604 µM | CC50 (K-562 [15]): 3.78 µM | TGI LOVO (LOVO [16]): 18.2 µM | GI50 (LOVO-DOX [17]): 4.75 µM | CC50 (LOVO-DOX [17]): 16.5 µM | GI50 (DU-145 [18]): 5.22 µM | CC50 (DU-145 [18]): 19 µM | TGI DU-145 (DU-145 [19]): 9.99 µM | GI50 (HELA [20]): 3.76 µM | CC50 (HELA [20]): 11.9 µM | TGI LN-caP (LN-caP [21]): 4.12 µM | antibacterial and antitumoral activities (in words) [22]: the same antibacterial and antitumoral activities as safracin B and safracin A, respectively | TGI K-562 (K-562 [23]): 1.16 µM | TGI HELA (HELA [24]): 6.68 µM | TGI PANC1 (PANC1 [25]): 11 µM | TGI HELA-APL (HELA-APL [26]): 5.24 µM | IC50 (RNA synthesis): 3.8 µM | GI50 (HELA-APL [27]): 2.28 µM | CC50 (HELA-APL [27]): 12.1 µM | GI50 (SK-BR3 [28]): 4.71 µM | CC50 (SK-BR3 [28]): 13 µM | TGI LOVO-DOX (LOVO-DOX [29]): 8.85 µM | GI50 (LOVO [30]): 6.99 µM | CC50 (LOVO [30]): > 19 µM

COc1c(C)cc(C[C@H](N)C(=O)O)cc1O [Safracin P-2, 3-hydroxy-5-methyl-O-methyltyrosine]
Biological Activities [1]: NO ACTIVE

COC1=C(C)C(=O)C2=C(C1=O)C(CNC(=O)C(C)N)N1CC3Cc4cc(C)c(OC)c(O)c4C(N3)C1C2 (centres unmarked) [Safracin E]
TGI IGROV (IGROV [2]): 8.85 µM | IC50 (DNA synthesis): > 19.6 µM | GI50 (HT29 [3]): 7.89 µM | CC50 (HT29 [3]): > 19.6 µM | TGI HT29 (HT29 [4]): 19.6 µM | TGI IGROV-ET (IGROV-ET [5]): 8.25 µM | zone of inhibition at 10 µg/disc (Bacillus subtilis): 9.5 mm | IC50 (PROTEIN synthesis): 15.7 µM | TGI SK-BR3 (SK-BR3 [6]): 9.24 µM | GI50 (SK-MEL-28 [7]): 3.94 µM | CC50 (SK-MEL-28 [7]): 12.2 µM | TGI A549 (A549 [8]): >19.6 µM | GI50 (A549 [9]): 19.6 µM | CC50 (A549 [9]): > 19.6 µM | GI50 (PANC1 [10]): 6.05 µM | CC50 (PANC1 [10]): > 19.6 µM | TGI SK-MEL-28 (SK-MEL-28 [11]): 6.93 µM | GI50 (LN-caP [12]): 3.86 µM | CC50 (LN-caP [12]): 15.4 µM | GI50 (IGROV [13]): 4.5 µM | CC50 (IGROV [13]): 17.4 µM | GI50 (IGROV-ET [14]): 4.54 µM | CC50 (IGROV-ET [14]): 14.9 µM | GI50 (K-562 [15]): 4.25 µM | CC50 (K-562 [15]): 15.9 µM | TGI LOVO (LOVO [16]): >19.6 µM | GI50 (LOVO-DOX [17]): 5.07 µM | CC50 (LOVO-DOX [17]): 17.5 µM | GI50 (DU-145 [18]): 8.34 µM | CC50 (DU-145 [18]): > 19.6 µM | TGI DU-145 (DU-145 [19]): 19.6 µM | GI50 (HELA [20]): 4.15 µM | CC50 (HELA [20]): 12.8 µM | TGI LN-caP (LN-caP [21]): 7.7 µM | antibacterial and antitumoral activities (in words) [22]: the same antibacterial and antitumoral activities as safracin B and safracin A, respectively | TGI K-562 (K-562 [23]): 8.21 µM | TGI HELA (HELA [24]): 7.29 µM | TGI PANC1 (PANC1 [25]): 14.7 µM | TGI HELA-APL (HELA-APL [26]): 7.25 µM | GI50 (HELA-APL [27]): 4.03 µM | CC50 (HELA-APL [27]): 13 µM | GI50 (SK-BR3 [28]): 5.05 µM | CC50 (SK-BR3 [28]): 17 µM | TGI LOVO-DOX (LOVO-DOX [29]): 9.44 µM | GI50 (LOVO [30]): 7.15 µM | CC50 (LOVO [30]): > 19.6 µM
